assay: Inhibitory activity against binding of horseradish peroxidase labelled Maclura pomifera, isolated from the seeds of osage orange tree to poly (acrylamide-co-allyl alpha-Galactopyranoside

SMILES | IC50
CC(=O)N[C@@H](CCCCN(CCC1OC(CO)C(O)C(O)C1O)CCC1OC(CO)C(O)C(O)C1O)C(=O)NCC(N)=O (stereo partly specified) | 1480 µM
CC(=O)N[C@@H](CCCCNC(=O)c1cc(NC(=O)CNC(=O)[C@H]2CCCN2C(=O)C[C@@H]2O[C@@H](CO)[C@H](O)[C@H](O)[C@@H]2O)cc(NC(=O)CNC(=O)[C@@H]2CCCN2C(=O)C[C@H]2O[C@@H](CO)[C@H](O)[C@H](O)[C@@H]2O)c1)C(=O)NCC(=O)NCc1ccccc1 | 1500 µM
CC(=O)N[C@@H](CCCCNC(=O)c1cc(NC(=O)CNC(=O)[C@H](C)NC(=O)C[C@H]2O[C@H](CO)[C@H](O)[C@H](O)[C@H]2O)cc(NC(=O)CNC(=O)[C@@H](C)NC(=O)C[C@H]2O[C@H](CO)[C@H](O)[C@H](O)[C@H]2O)c1)C(=O)NCC(=O)NCc1ccccc1 | 2840 µM
CCN(CC)C(=O)CC1OC(CO)C(O)C(O)C1O (stereo unspecified) | 2570 µM
CC(=O)N[C@@H](CCCCNC(=O)CC1OC(CO)C(O)C(O)C1O)C(=O)NCC(N)=O (stereo partly specified) | 4180 µM
CCN(CC)C(=O)CNC(=O)[C@H](CCCCNC(=O)CN(CCC1OC(CO)C(O)C(O)C1O)C(=O)CC1OC(CO)C(O)C(O)C1O)NC(C)=O (stereo partly specified) | 4310 µM
